Test results published in patent publication US20230303552A1, “ARYLSULFONYL DERIVATIVES AND THEIR USE AS MUSCARINIC ACETYLCHOLINE RECEPTOR M5 INHIBITORS” (Vanderbilt University, priority 2020, published 2023).

Target: T1, human M5 receptors (hM5) (Homo sapiens, UniProt P08912)
T1 construct: expressed in transfected cells
T1 sequence (P08912 1-532): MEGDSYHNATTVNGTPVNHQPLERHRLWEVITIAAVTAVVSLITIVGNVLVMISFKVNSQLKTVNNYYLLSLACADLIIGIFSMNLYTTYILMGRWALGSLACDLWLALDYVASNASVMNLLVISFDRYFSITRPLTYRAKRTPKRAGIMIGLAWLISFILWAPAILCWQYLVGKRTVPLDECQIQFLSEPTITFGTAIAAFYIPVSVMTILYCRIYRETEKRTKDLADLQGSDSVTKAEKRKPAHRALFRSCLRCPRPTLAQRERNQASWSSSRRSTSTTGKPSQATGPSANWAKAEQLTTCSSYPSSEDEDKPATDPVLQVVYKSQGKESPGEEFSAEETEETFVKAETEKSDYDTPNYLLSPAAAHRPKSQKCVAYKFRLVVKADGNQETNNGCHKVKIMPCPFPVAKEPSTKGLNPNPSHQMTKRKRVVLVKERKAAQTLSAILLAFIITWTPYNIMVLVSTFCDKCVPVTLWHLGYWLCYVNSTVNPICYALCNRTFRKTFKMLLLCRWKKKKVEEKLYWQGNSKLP
Test: Cell-based functional calcium mobilization assay of mAChR M5 activity (inhibition of EC80 acetylcholine response) in CHO cells
Conditions: CHO cells stably expressing hM5; for IC50: calcium flux (Fluo-4), EC80 acetylcholine addition; for EC80 MIN: minimum of EC80 acetylcholine response, normalized to maximum acetylcholine response
Summary of the method: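 CHO cells stably expressing human M5, loaded with Fluo-4 AM in HBSS/20 mM HEPES/2.5 mM probenecid pH 7.4. Compound added 140 s before acetylcholine EC20, then EC80 added 125 s later. Calcium flux normalized to maximal acetylcholine response; IC50 from ten-point curves in the EC80 window.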

Row | IC50 | EC80 MIN | SMILES
1 | > 10000 nM | 22% | COc1ccc(S(=O)(=O)N2CCC(C(=O)Nc3ccc4scnc4c3)CC2)c(C)c1 [Compound 62, N-(benzo[d]thiazol-5-yl)-1-((4-methoxy-2-methylphenyl)sulfonyl)pipe ridine-4-carboxamide]
2 | 2550 nM | 2% | O=C(Nc1ccc2scnc2c1)C1CCN(S(=O)(=O)c2cccc(F)c2)CC1 [Compound 63, N-(benzo[d]thiazol-5-yl)-1-((3-fluorophenyl)sulfonyl)piper idine-4-carboxamide]
3 | > 10000 nM | 2% | O=C(Nc1ccc2scnc2c1)C1CCN(S(=O)(=O)c2ccccc2C(F)(F)F)CC1 [Compound 64, N-(benzo[d]thiazol-5-yl)-1-((2-(trifluoromethyl)phenyl)sulfonyl)piperidine-4-carboxamide]
4 | 652 nM | 2% | O=C(Nc1ccc2scnc2c1)C1CCN(S(=O)(=O)c2ccccc2Cl)CC1 [Compound 65, N-(benzo[d]thiazol-5-yl)-1-((2-chlorophenyl)sulfonyl)piper idine-4-carboxamide]
5 | > 10000 nM | 16% | O=C(Nc1ccc2scnc2c1)C1CCN(S(=O)(=O)c2ccc(Cl)cc2)CC1 [Compound 66, N-(benzo[d]thiazol-5-yl)-1-((4-chlorophenyl)sulfonyl)piper idine-4-carboxamide]
6 | > 10000 nM | 7% | O=C(Nc1ccc2scnc2c1)C1CCN(S(=O)(=O)c2ccc(F)cc2)CC1 [Compound 67, N-(benzo[d]thiazol-5-yl)-1-((4-fluorophenyl)sulfonyl)piper idine-4-carboxamide]
7 | > 10000 nM | 39% | O=C(Nc1ccc2scnc2c1)C1CCN(S(=O)(=O)c2ccccn2)CC1 [Compound 68, N-(benzo[d]thiazol-5-yl)-1-(pyridin-2-ylsulfonyl)piperidine-4-carboxamide]
8 | 895 nM | 2% | O=C(Nc1ccc2scnc2c1)[C@@H]1CCN(S(=O)(=O)c2cc(I)c3c(c2)CCO3)C1 [Compound 74, (R)-N-(benzo[d]thiazol-5-yl)-1((7-iodo-2,3-dihydrobenzofuran-5-yl)sulfonyl)pyrrolidine-3-carboxamide]
9 | > 10000 nM | 23% | O=C(Nc1ccc2scnc2c1)[C@@H]1CCN(S(=O)(=O)c2ccc(Cl)nc2)C1 [Compound 76, (R)-N-(benzo[d]thiazol-5-yl)-1-((6-chloropyridin-3-yl)sulfonyl)pyrrolidine-3-carboxamide]
10 | 76 nM | 3% | C[C@H]1CN(S(=O)(=O)c2ccc3c(c2)CCO3)C[C@@H]1C(=O)Nc1ccc2scnc2c1 [Compound 78]
11 | 1460 nM | 3% | Cc1cc(S(=O)(=O)N2CC[C@@H](C(=O)Nc3ccc4scnc4c3)C2)cc2c1OCC2 [Compound 83, (R)-N-(benzo[d]thiazol-5-yl)-1-((7-methyl-2,3-dihydrobenzofuran-5-yl)sulfonyl)pyrrolidine-3-carboxamide]
12 | > 10000 nM |  | CN(C(=O)C1CCN(S(=O)(=O)c2ccc3c(c2)CCO3)CC1)c1ccc2scnc2c1 [Compound 84, N-(Benzo[d]thiazol-5-yl)-1-((2,3-Dihydrobenzofuran-5-yl)Sulfonyl)-N-Methylpiperidine-4-Carboxamide]
13 | 1750 nM | 3% | CC(=O)N(C(=O)C1CCN(S(=O)(=O)c2ccc3c(c2)CCO3)CC1)c1ccc2scnc2c1 [Compound 85, N-Acetyl-N-(Benzo[d]thiazol-5-yl)-1-((2,3-Dihydrobenzofuran-5-yl)Sulfonyl)Piperidine-4-Carboxamide]
14 | > 10000 nM | 79% | O=C(Nc1cnc2cc[nH]c2c1)C1CCN(S(=O)(=O)c2ccc3c(c2)CCO3)CC1 [Compound 89, 1-((2,3-dihydrobenzofuran-5-yl)sulfonyl)-N-(1H-pyrrolo[3,2-b]pyridin-6-yl)piperidine-4-carboxamide]
15 | > 10000 nM | 69% | O=C(Nc1cnc2[nH]ccc2c1)C1CCN(S(=O)(=O)c2ccc3c(c2)CCO3)CC1 [Compound 90, 1-((2,3-dihydrobenzofuran-5-yl)sulfonyl)-N-(1H-pyrrolo[2,3-b]pyridin-5-yl)piperidine-4-carboxamide]
16 | 138 nM | 17% | Cc1nc2cc(NC(=O)C3CCN(S(=O)(=O)c4ccc5c(c4)CCO5)CC3)ccc2s1 [Compound 91, 1-((2,3-Dihydrobenzofuran-5-yl)Sulfonyl)-N-(2-Methylbenzo[d]thiazol-5-yl)Piperidine-4-Carboxamide]

Row | IC50 | EC80 MIN | SMILES
17 | 129 nM | 14% | O=C(Nc1ccc2snnc2c1)C1CCN(S(=O)(=O)c2ccc3c(c2)CCO3)CC1 [Compound 100]
18 | > 10000 nM | 49% | Cc1cc2scnc2cc1NC(=O)C1CCN(S(=O)(=O)c2ccc3c(c2)CCO3)CC1 [Compound 101, 1-((2,3-dihydrobenzofuran-5-yl)sulfonyl)-N-(6-methylbenzo[d]thiazol-5-yl)piperidine-4-carboxamide]
19 | > 10000 nM | 56% | O=C(Nc1cnc2scnc2c1)C1CCN(S(=O)(=O)c2ccc3c(c2)CCO3)CC1 [Compound 102, 1-((2,3-dihydrobenzofuran-5-yl)sulfonyl)-N-(thiazolo[5,4-b]pyridin-6-yl)piperidine-4-carboxamide]
20 | > 10000 nM | 3% | CC1(C(=O)Nc2ccc3scnc3c2)CCN(S(=O)(=O)c2ccc3c(c2)CCO3)CC1 [Compound 104, N-(benzo[d]thiazol-5-yl)-1-((2,3-dihydrobenzofuran-5-yl)sulfonyl)-4-methylpiperidine-4-carboxamide]
21 | > 10000 nM | 25% | CC1(C(=O)Nc2ccc3scnc3c2)CCN(S(=O)(=O)c2ccc3ncsc3c2)CC1 [Compound 105, N-(benzo[d]thiazol-5-yl)-1-(benzo[d]thiazol-6-ylsulfonyl)-4-methylpiperidine-4-carboxamide]
22 | > 10000 nM | 35% | CC1(C(=O)Nc2ccc3scnc3c2)CCN(S(=O)(=O)c2ccc(Cl)nc2)CC1 [Compound 106, N-(benzol[d]thiazol-5-yl)-1-((6-chloropyridin-3-yl)sulfonyl)-4-methylpiperidine-4-carboxamide]
23 | > 10000 nM | 24% | CC1(C(=O)Nc2ccc3scnc3c2)CCN(S(=O)(=O)c2cccc3nsnc23)CC1 [Compound 107, 1-(benz.o[c][1.2.5]thiadiazol-4-ylsulfony1)-N-(benzo[d]thiazol-5-yl)-4-methylpiperidine-4-carboxamide]
24 | > 10000 nM | 22% | O=C(Nc1ccc2scnc2c1)C1(F)CCN(S(=O)(=O)c2ccc3ncsc3c2)CC1 [Compound 108]
25 | > 10000 nM | 9% | Cc1nn(C)cc1S(=O)(=O)N1CCC(F)(C(=O)Nc2ccc3scnc3c2)CC1 [Compound 109, N-(benzo[d]thiazol-5-yl]-1-((1,3-dimethyl-1H-pyrazol-4-yl)sulfonyl)-4-fluoropiperidine-4-carboxamide]
26 | > 10000 nM | 53% | Cn1cnc2cc(NC(=O)C3CCN(S(=O)(=O)c4ccc5c(c4)CCO5)CC3)ccc21 [Compound 110, 1-((2,3-dihydrobenzofuran-5-yl)sulfonyl)-N-(1-methyl-1H-benzo[d]imidazol-5-yl)piperidine-4-carboxamide]
27 | 38 nM | 3% | C[C@@H]1CN(S(=O)(=O)c2ccc3c(c2)CCO3)C[C@@H]1C(=O)Nc1ccc2scnc2c1 [Compound 111, (3R,4S)-N-(benzo[d]thiazol-5-yl)-1-((2,3-dihydrobenzofuran-5-yl)sulfonyl)-4-methylpyrrolidine-3-carboxamide]
28 | > 10000 nM | 58% | Cc1nn(C)cc1S(=O)(=O)N1CCC(C)(C(=O)Nc2ccc3scnc3c2)CC1 [Compound 112, N-(benzo[d]thiazol-5-yl)-1-((1,3-dimethyl-1H-pyrazol-4-yl)sulfonyl)-4-methylpiperidine-4-carboxamide]
29 | 712 nM | 10% | O=C(Nc1ccc2scnc2c1)C1(F)CCN(S(=O)(=O)c2ccc3c(c2)CCO3)CC1 [Compound 113, N-(benzo[d]thiazol-5-yl)-1-((2.3-dihydrobenzofuran-5-yl)sulfonyl)-4-fluoropiperidine-4-carboxamide]
30 | 2040 nM | 4% | O=C(Nc1ccc2scnc2c1)C1(F)CCN(S(=O)(=O)c2cccnc2)CC1 [Compound 114, N-(benzo[d]thiazol-5-yl)-4-fluoro-1-(pyridin-3-ylsulfonyl)piperidine-4-carboxamide]
31 | > 10000 nM | 51% | O=C(Nc1ccc2scnc2c1)C1(F)CCN(S(=O)(=O)c2cccc3nsnc23)CC1 [Compound 115, 1-(benzo[c][1,2,5]thiadiazol-4-ylsulfonyl)-N-(benzo[d]thiazol-5-yl)-4-fluoropiperidine-4-carboxamide]
32 | 105 nM | 3% | Cc1ccc(S(=O)(=O)N2CCC(C(=O)Nc3ccc4scnc4c3)CC2)cn1 [Compound 124]
